Measured values as given in patent US10053453B2, “Compounds and their use as BACE inhibitors” (AstraZeneca AB, priority 2014, dated 2018).
Read-outs that look alike come from different tables or passages of the source.

Key:
Human BACE2 = target: T1, Human BACE2 (Homo sapiens, UniProt Q9Y5Z0); assay: TR-FRET assay; type: biochemical; conditions: substrate 100 nM, pH4.5
T1 construct: the soluble part of the human β-Secretase2 (AA1-AA473) was cloned using BACE2(1-473)-(AVT)-Fc-pDEST12.2 mammalian expression vector; AVT linker (C); made in house
T1 sequence (Q9Y5Z0 21-473): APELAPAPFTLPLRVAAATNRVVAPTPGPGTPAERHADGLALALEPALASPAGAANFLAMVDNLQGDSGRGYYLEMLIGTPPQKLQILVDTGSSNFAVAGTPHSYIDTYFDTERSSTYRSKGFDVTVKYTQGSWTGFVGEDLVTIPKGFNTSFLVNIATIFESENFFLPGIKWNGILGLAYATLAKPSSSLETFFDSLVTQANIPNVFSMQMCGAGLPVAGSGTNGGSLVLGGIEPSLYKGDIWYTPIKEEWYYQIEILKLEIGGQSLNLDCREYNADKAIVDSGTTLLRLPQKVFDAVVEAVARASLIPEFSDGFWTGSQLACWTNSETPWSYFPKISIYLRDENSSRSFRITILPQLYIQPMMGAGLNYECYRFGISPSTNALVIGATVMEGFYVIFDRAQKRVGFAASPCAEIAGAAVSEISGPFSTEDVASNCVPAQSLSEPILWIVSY
Method: (§1) The β-secretase enzyme used in the TR-FRET was prepared as follows:
(§2) Human BACE1: the cDNA for the soluble part of the human β-Secretase1 (AA1-AA460) was cloned using the BACE1(1-460)-(AVT)-Fc-pGEN-IRES-neo mammalian expression vector. The gene was fused to the Fe domain of IgG1 (affinity tag) and stably cloned into HEK 293 cells. […]
(§3) A multidrop Combi was used for the liquid handling. Enzyme (7 μL) was added to the compound plate (containing 0.8 μL of compound in dimethylsulphoxide). The plate was incubated for 10 minutes. Substrate (8 μL) was then added, and the reaction proceeded for 17 minutes at r.t. The reaction was stopped with the addition of Stop solution (5.5 μL, NaOAC, pH 9). Fluorescence was measured on a Pherastar plate reader using HTRF module. […] 5 reference inhibitors with different affinities were used at all screen occasions in dose response.

SH-SY5Y cells = assay: sAPPβ release assay
Method: Cells were thawed and seeded at a concentration of around 10000 cells/well in DMEM/F-12 with Glutamax, 10% FCS and 1% non-essential amino acids to a 384-well tissue culture treated plate, 30 μL cell susp/well. The cell plates were then incubated for 7-24 h at 37° C., 5% CO2.
The cell medium was removed, followed by addition of 50 μL compound diluted in DMEM/F-12 with Glutamax, 10% FCS, 1% non-essential amino acids to a final cone of 0.5% DMSO. The compounds were incubated with the cells for 16-17 h (overnight) at 37° C., 5% CO2.
Meso Scale Discovery (MSD) plates were used for the detection of sAPP release. MSD sAPPβ plates were blocked in 1% BSA in Tris wash buffer for 1 h on shake at r.t. and washed 1 time in Tris wash buffer. […] The MSD plates were incubated with shaking at r.t. for 2 h and the media discarded. 10 μL detection antibody was added (1 nM) per well followed by incubation with shaking at r.t. for 2 h and then discarded. 35 μL Read Buffer was added per well and the plates were read in a Meso Scale Discovery SECTOR6000 Imager.

Human BACE1 = target: T2, Human BACE1 (Homo sapiens, UniProt P56817); assay: Diluted TR-FRET assay; type: biochemical; conditions: 50 times less enzyme, 6.5 h reaction time at r.t.; read-out: IC50 BACE1 (dil. TR-FRET)
T2 construct: the soluble part of the human β-Secretase1 (AA1-AA460) was cloned using the BACE1(1-460)-(AVT)-Fc-pGEN-IRES-neo mammalian expression vector; AVT linker (C); made in house
T2 sequence (P56817 22-460): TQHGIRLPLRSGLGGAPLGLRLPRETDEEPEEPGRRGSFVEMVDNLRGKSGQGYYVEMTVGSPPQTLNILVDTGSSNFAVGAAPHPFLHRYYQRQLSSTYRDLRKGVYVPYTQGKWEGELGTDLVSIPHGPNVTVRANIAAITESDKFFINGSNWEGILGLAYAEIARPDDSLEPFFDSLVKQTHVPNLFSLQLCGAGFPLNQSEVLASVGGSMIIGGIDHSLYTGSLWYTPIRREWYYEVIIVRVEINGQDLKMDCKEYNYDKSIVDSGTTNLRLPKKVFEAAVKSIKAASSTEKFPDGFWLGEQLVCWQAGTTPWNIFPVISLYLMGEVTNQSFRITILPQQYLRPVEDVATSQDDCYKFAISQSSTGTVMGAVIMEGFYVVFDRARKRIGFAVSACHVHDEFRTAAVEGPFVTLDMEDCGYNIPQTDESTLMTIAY
Method: as §1, §2
as §3, with “Substrate (8 μL) was then added, and the reaction proceeded for 17 minutes at r.t.” left out

[1] = Homo sapiens, SH-SY5Y, read-out: IC50 Cell (sAPPβ release, nM), SH-SY5Y cells, compounds incubated 16-17 h

Compound	IC50 (Human BACE2; enzyme 2.7 μg/mL) [µM]	IC50 (SH-SY5Y cells; [1]) [nM]	IC50 (Human BACE1) [µM]	IC50 (Human BACE2; enzyme […]) [µM]	IC50 (SH-SY5Y cells; read-out: IC50 Cell (sAPPβ release), SH-SY5Y cells, compounds incubated 16-17 h) [nM]
[2H]C1([2H])OC(N)=NC12c1cc(-c3cncc(C)c3)ccc1C[C@@]21CC[C@H](OC)[C@@H](C)C1 (stereo partly drawn) [Compound 21, (1S,3S,4S)-4-methoxy-3-methyl-6′-(5-methylpyridin-3-yl)-3′H,5″H-dispiro[cyclohexane-1,2′-indene-1′,4″-oxazol]-5″,5″-d2-2″-amine]	0.256	1.6	0.067		
[2H]C1([2H])OC(N)=N[C@]12c1cc(-c3cc(C#N)cc(OC)c3)ccc1C[C@@]21CC[C@H](OC)[C@@H](C)C1 [Compound 23, 3-((1S,1′R,3S,4S)-2″-amino-4-methoxy-3-methyl-3′H,5″H-dispiro[cyclohexane-1,2′-indene-1′,4″-oxazol]-6′-yl-5″,5″-d2)-5-methoxybenzonitrile]	0.0214	1.5	0.0073		
[2H]C1([2H])OC(N)=N[C@]12c1cc(-c3cc(C#N)cc(OC)c3)ccc1C[C@]21CC[C@@H](OC)[C@H](C)C1 [Compound 24, 3-((1R,1′R,3R,4R)-2″-amino-4-methoxy-3-methyl-3′H,5″H-dispiro[cyclohexane-1,2′-indene-1′,4″-oxazol]-6′-yl-5″,5″-d2)-5-methoxybenzonitrile]	0.018	3.2	0.018		
[2H]C1([2H])OC(N)=N[C@]12c1cc(-c3cncc(C(F)(F)F)c3)ccc1C[C@@]21CC[C@H](OC)[C@@H](C)C1 [Compound 26]	0.0784	2.6	0.0196		
[2H]C1([2H])OC(N)=N[C@]12c1cc(-c3cccc(Cl)c3)ccc1C[C@@]21CC[C@H](OC)[C@@H](C)C1 [Compound 27]	0.0247	2.8	0.012		
[2H]C1([2H])OC(N)=N[C@]12c1cc(-c3cncc(C)c3)ccc1C[C@@]21CC[C@H](OC)[C@@H](C)C1 [Compound 28]	0.255	1.6	0.067		
[2H]C1([2H])OC(N)=N[C@]12c1cc(-c3cncc(C(F)(F)F)c3)ccc1C[C@]21CC[C@@H](OC)[C@H](C)C1 [Compound 29, (1R,1′R,3R,4R)-4-methoxy-3-methyl-6′-(5-(trifluoromethyl)pyridin-3-yl)-3′H,5″H-dispiro[cyclohexane-1,2′-indene-1′,4″-oxazol]-5″,5″-d2-2″-amine]	0.0792	2.6	0.0557		
CO[C@H]1[C@H](C)C[C@@]2(Cc3ccc(-c4cncc(C#N)c4)cc3[C@@]23COC(N)=N3)C[C@@H]1C [Compound 31, 5-((1r,3R,4r,5S)-2″-amino-4-methoxy-3,5-dimethyl-3′H,5″H-dispiro[cyclohexane-1,2′-indene-1′,4″-oxazol]-6′-yl)nicotinonitrile]	0.0908	2.4	0.0243		
[2H]C1([2H])OC(N)=NC12c1cc(-c3cc(C#N)cc(OC)c3)ccc1C[C@@]21C[C@@H](C)[C@H](OC)[C@@H](C)C1 (stereo partly drawn) [Compound 32, 3-((1r,3R,4r,5S)-2″-amino-4-methoxy-3,5-dimethyl-3′H,5″H-dispiro[cyclohexane-1,2′-indene-1′,4″-oxazol]-6′-yl-5″,5″-d2)-5-methoxybenzonitrile]	0.0262	2.8	0.0073		
[2H]C1([2H])OC(N)=N[C@]12c1cc(-c3cncc(Cl)c3)ccc1C[C@]21CC[C@@H](OC)[C@H](C)C1 [Compound 34, (1R,1′R,3R,4R)-6′-(5-chloropyridin-3-yl)-4-methoxy-3-methyl-3′H,5″H-dispiro[cyclohexane-1,2′-indene-1′,4″-oxazol]-5″,5″-d2-2″-amine]			0.0117	0.0227	0.5
[2H]C1([2H])OC(N)=N[C@]12c1cc(-c3cccc(Cl)c3)ccc1C[C@]21CC[C@@H](OC)[C@H](C)C1 [Compound 37, (1R,1′R,3R,4R)-6′-(3-chlorophenyl)-4-methoxy-3-methyl-3′H,5″H-dispiro[cyclohexane-1,2′-indene-1′,4″-oxazol]-5″,5″-d2-2″-amine]	0.0174	3.7	0.0128		
CO[C@H]1CC[C@]2(CC1)Cc1ccc(-c3cncc(C#N)c3)cc1[C@@]21COC(N)=N1 [Compound 38, 5-((1r,1′R,4R)-2″-amino-4-methoxy-3′H,5″H-dispiro[cyclohexane-1,2′-indene-1′,4″-oxazol]-6′-yl)nicotinonitrile]	0.315	4.3	0.166		
[2H]C1([2H])OC(N)=NC12c1cc(-c3cc(Cl)cc(C#N)c3)ccc1C[C@@]21C[C@@H](C)[C@H](OC)[C@@H](C)C1 (stereo partly drawn) [Compound 39, 3-((1r,3R,4r,5S)-2″-amino-4-methoxy-3,5-dimethyl-3′H,5″H-dispiro[cyclohexane-1,2′-indene-1′,4″-oxazol]-6′-yl-5″,5″-d2)-5-chlorobenzonitrile]	0.0507	4.3	0.0047		
[2H]C1([2H])OC(N)=NC12c1cc(C([2H])([2H])C([2H])([2H])C(C)C)ccc1C[C@@]21C[C@@H](C)[C@H](OC)[C@@H](C)C1 (stereo partly drawn) [Compound 40, (1r,3R,4r,5S)-4-methoxy-3,5-dimethyl-6′-(3-methylbutyl-1,1,2,2-d4)-3′H,5″H-dispiro[cyclohexane-1,2′-indene-1′,4″-oxazol]-5″,5″-d2-2″-amine]	0.118	4.4	0.0329		
CO[C@H]1CC[C@]2(CC1)Cc1ccc(-c3cncc(C(F)(F)F)c3)cc1C21COC(N)=N1 (stereo partly drawn) [Compound 42, (1r,4r)-4-methoxy-6′-(5-(trifluoromethyl)pyridin-3-yl)-3′H,5″H-dispiro[cyclohexane-1,2′-indene-1′,4″-oxazol]-2″-amine]	0.221	7.3	0.307		
[2H]C1([2H])OC(N)=NC12c1cc(CCC(C)C)ccc1C[C@@]21C[C@@H](C)[C@H](OC)[C@@H](C)C1 (stereo partly drawn) [Compound 43, (1r,3R,4r,5S)-6′-isopentyl-4-methoxy-3,5-dimethyl-3′H,5″H-dispiro[cyclohexane-1,2′-indene-1′,4″-oxazol]-5″,5″-d2-2″-amine]	0.194	7.5	0.0136		
[2H]C1([2H])OC(N)=NC12c1cc(OCCC(F)(F)F)ccc1C[C@]21CC[C@@H](OC)CC1 (stereo partly drawn) [Compound 45, (1r,4r)-4-methoxy-6′-(3,3,3-trifluoropropoxy)-3′H,5″H-dispiro[cyclohexane-1,2′-indene-1′,4″-oxazol]-5″,5″-d2-2″-amine]	0.589	7.8	0.289		
CO[C@H]1CC[C@]2(CC1)Cc1ccc(-c3cncc(C#N)c3)cc1C21COC(N)=N1 (stereo partly drawn) [Compound 46, 5-((1r,4r)-2″-amino-4-methoxy-3′H,5″H-dispiro[cyclohexane-1,2′-indene-1′,4″-oxazol]-6′-yl)nicotinonitrile]	0.3	8.8	0.219		
[2H]C1([2H])OC(N)=NC12c1cc(-c3cc(C#N)cc(OC)c3)ccc1C[C@@]21CC[C@H](O)[C@@H](C)C1 (stereo partly drawn) [Compound 49, 3-((1S,3S,4S)-2″-amino-4-hydroxy-3-methyl-3′H,5″H-dispiro[cyclohexane-1,2′-indene-1′,4″-oxazol]-6′-yl-5″,5″-d2)-5-methoxybenzonitrile]	0.069	15.8	0.166		
